In patent publication US20160338989A1, “SOLID PHARMACEUTICAL COMPOSITIONS CONTAINING BENZOFURAN DERIVATIVES” (SANOFI, priority 1997, published 2016):
Structures can show the parent of a compound that is named as a salt.

Columns and labels:
[1] = Dissolution at pH=4 and dilution to 1/10 with buffer of pH=7; assay type: physicochemical
Protocol: Thus, it is possible to dissolve 400 mg of dronedarone hydrochloride in 200 ml of aqueous medium buffered to pH=4 (aqueous 0.1 M NaH2PO4 solution).
On the other hand, in this medium diluted to 1/10 with an aqueous solution buffered to pH=7 (aqueous 0.1 M Na2HPO4 solution), dronedarone hydro-chloride precipitates (pH of the final medium: 6.7).

[2] = Behaviour in the presence of bile salts; assay type: physicochemical; conditions: bile salts such as sodium taurocholate
[3] = Test of maintenance in solution at pH=6.7, active principle alone; assay type: physicochemical; conditions: absence of surfactant; pH 6.7, 2 hours at 37° C.
Protocol: Solutions were prepared containing 2 mg/ml of dronedarone. hydrochloride in hydrogenphosphate (NaH2PO4 buffered medium at pH=4.5 for 2 hours at 37° C. in the presence or absence of x % of nonionic hydrophilic surfactant to be studied, calculated on a weight basis relative to the active principle in base form.
This solution was then diluted to 1/10th in a neutral phosphate medium (Na2HPO4+NaH2PO4), the pH of the final solution being 6.7.
After 2 hours at 37° C., the solution was filtered through an Acrodisc brand 5 μm filter and the active principle in solution was assayed by UV spectrometry.

[4] = Bioavailability after intake of food, dogs; assay type: in vivo; conditions: in particular fats
Excerpt: (§1) This behaviour in intestinal medium probably makes it possible to explain in vivo the low bio-availability of dronedarone hydrochloride and the differences observed after administration with or without food, since it has been observed that the bio-availability of dronedarone hydrochloride in dogs and in man is increased after the intake of food, in particular fats, which can greatly modify the precipitation kinetics of this active principle and also help to place it in emulsion form.

[5] = Bioavailability after intake of food, man; assay type: in vivo; conditions: in particular fats
Excerpt: as §1

physchem = conditions: aqueous medium

With `CCCCc1oc2ccc(NS(C)(=O)=O)cc2c1C(=O)c1ccc(OCCCN(CCCC)CCCC)cc1` [dronedarone hydrochloride, 2-n-butyl-3-[4-(3-di-n-butyl-aminopropoxy)benzoyl]-5-methylsul-phonamidobenzofuran] as the compound, how does the “behaviour on dilution to 1/10 with aqueous solution buffered to pH=7” value ([1]; 0.1 M Na2HPO4, pH of the final medium 6.7) read?
The value was “precipitates”.

And the “amount that can be dissolved in 200 ml of aqueous medium” value ([1]; buffered to pH=4 (aqueous 0.1 M NaH2PO4 solution))?
Its value is 400 mg.

And the “behaviour in the presence of bile salts” value [2]?
The value was “precipitates”.

And the “% of dronedarone hydrochloride in solution” value [3]?
The value was 5%.

What about the “bioavailability after the intake of food” value [4] of the same compound?
The value was “increased”.

What about the “bioavailability after the intake of food” value [5] of the same compound?
The value was “increased”.

What about the solubility (physchem; aqueous buffer) of the same compound?
Its solubility is 1000 to 2000 µg/mL.

And the solubility (physchem; pH 7, aqueous buffer)?
The solubility was 10 µg/mL.
